The record followed here is patent EP4342530A1, “SORTILIN MODULATORS” (Insusense ApS, priority 2022, dated 2024).

The structures appear in SMILES notation.

Assay [1] has as its target T1, Sortilin (Homo sapiens, UniProt Q99523).
T1 construct: purchased Bio-Techne Ltd 3154-ST-050
T1 sequence (Q99523 78-755 limits assumed): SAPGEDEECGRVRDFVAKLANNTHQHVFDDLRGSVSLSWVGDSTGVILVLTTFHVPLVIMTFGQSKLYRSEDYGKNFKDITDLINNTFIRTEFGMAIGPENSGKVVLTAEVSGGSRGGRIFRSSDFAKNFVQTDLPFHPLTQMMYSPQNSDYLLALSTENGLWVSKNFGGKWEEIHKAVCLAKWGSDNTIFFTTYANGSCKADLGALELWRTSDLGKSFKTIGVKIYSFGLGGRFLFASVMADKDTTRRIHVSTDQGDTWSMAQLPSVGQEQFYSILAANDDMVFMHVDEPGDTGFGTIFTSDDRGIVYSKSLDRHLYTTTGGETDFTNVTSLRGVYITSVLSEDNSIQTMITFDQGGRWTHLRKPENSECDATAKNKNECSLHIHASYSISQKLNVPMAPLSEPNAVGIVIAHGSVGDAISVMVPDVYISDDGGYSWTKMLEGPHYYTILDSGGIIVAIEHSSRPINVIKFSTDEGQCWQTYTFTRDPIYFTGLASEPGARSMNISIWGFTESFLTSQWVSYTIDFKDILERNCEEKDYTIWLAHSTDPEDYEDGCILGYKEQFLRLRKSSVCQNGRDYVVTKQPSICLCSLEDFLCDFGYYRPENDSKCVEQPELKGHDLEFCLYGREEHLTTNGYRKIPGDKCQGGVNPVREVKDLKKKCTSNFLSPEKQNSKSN
The assay can be described thus: Creoptix (GCI) binding kinetics, human Sortilin. Particulars: Species Human, screened at 1 µM, 25 degrees Celsius. As for the experimental part: (§1) Creoptix (GCI) method - using SEQ ID NO.4 (Murine sortillin)
(§2) A protein, bound to a surface, is bathed in a solution containing potential ligands giving rise to binding kinetics to generate Kon and Koff rates, as well as a Kd.
(§3) All buffers described were filtered using a 0.2µm filter (Product number: 10300461, Nalgene) and degassed for 15 minutes prior to use.
(§4) A flow cell temperature of 25 degrees Celsius was used throughout the experiment.
(§5) A 4PCH chip was conditioned across all flow cells using 0.2 X concentration running buffer (running buffer composition: 1XHBS-N, pH 7.4, 3.4 mM EDTA, 1% DMSO) using pre-set conditioning wizard (WAVE control software) injecting: 0.1 M borate, 1 M NaCl (pH 9) followed by three start-up injections of 0.2 X running buffer.
(§6) A buffer exchange was performed and 1x running buffer (1XHBS-N, pH 7.4, 3.4 mM EDTA, 1% DMSO) used during the immobilisation procedure: An initial injection of EDC/NHS (mixed in 1:1 ratio) was performed across all 4-flow cells to activate the surface for amine coupling of ligands.
(§7) Recombinant Sortilin aliquots were thawed quickly by hand and centrifuged at 13,300 rpm for 10 minutes. A 10 µg/ml protein solution was then made in pH 5.0 acetate and injected once for 20 minutes over flow-cells 2, 3 and 4 for human, human (flow cells 2 & 3), and mouse Sortilin respectively followed by a 60 second dissociation period.
(§8) A final 7-minute passivation injection of 50 mM tris was used across all flow cells.
(§9) A flow rate of 10 µl/min was used for all conditioning and immobilisation cycles.
(§10) Compounds were screened at 1 µM using the in-built 'intermediate binders' settings: 100 ul/min, 45 s baseline, 25 s association, 300 s dissociation, with blanks every 5th sample and a DMSO correction (1.5 % DMSO at the start and end of the experiment as well as every 20 cycles. An acquisition rate of 10 Hz was used throughout the experiment.
(§11) Compounds were screened at a final assay concentration of 1 µM and a final DMSO concentration was 1 %. To achieve this, compounds were diluted in DMSO from 10 mM stocks to 100 µM (100 x final assay concentration) then diluted 1:100 in running buffer which contained no DMSO to establish a final assay concentration of compound of 1 µM and a final DMSO concentration of 1 % [DMSO].
(§12) Compounds and DMSO were mixed by plate shaking at 1000 rpm for 60 seconds using a Bioshake instrument.
(§13) A flow rate of 100 µl/min was used throughout the experiment.
(§14) Data was evaluated using the RAPID kinetic analysis tool in the GCI WAVE_control software with data fitted using a standard 1:1 kinetic BioModel.

Another assay addresses T2, h-Sortilin (Homo sapiens, UniProt Q99523).
T2 sequence (Q99523 78-831): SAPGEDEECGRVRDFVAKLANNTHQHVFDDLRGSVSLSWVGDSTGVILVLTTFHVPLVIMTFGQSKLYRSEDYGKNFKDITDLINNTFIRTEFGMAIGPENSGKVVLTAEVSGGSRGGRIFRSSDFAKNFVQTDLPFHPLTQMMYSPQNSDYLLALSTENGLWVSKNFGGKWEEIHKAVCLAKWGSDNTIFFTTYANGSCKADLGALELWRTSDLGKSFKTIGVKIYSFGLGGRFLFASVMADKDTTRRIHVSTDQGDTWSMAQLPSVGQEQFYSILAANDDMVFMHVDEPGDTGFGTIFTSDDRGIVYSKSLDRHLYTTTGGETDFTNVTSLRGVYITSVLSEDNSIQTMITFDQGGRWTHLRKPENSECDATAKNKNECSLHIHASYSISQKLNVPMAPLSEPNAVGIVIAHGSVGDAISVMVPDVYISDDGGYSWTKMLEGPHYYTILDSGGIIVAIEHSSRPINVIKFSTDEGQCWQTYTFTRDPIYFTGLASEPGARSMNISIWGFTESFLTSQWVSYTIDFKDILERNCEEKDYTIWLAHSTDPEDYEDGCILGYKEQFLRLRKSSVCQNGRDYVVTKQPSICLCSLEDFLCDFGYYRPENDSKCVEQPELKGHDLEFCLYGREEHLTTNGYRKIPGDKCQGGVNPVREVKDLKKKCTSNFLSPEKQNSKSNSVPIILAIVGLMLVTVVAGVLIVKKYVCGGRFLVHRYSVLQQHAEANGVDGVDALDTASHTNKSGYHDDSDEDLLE
The assay can be described thus: Neurotensin scintillation proximity assay (displacement of [3H]-neurotensin binding). The following applies: 150 nM 6his-Sortilin, 5 nM [3H]-Neurotensin; average of at least 2 determinations; read-out: IC50 [3H]Neurotensin SPA. As for the experimental part:
The exemplified compounds of the invention were tested in a Neurotensin (NTS) scintillation proximity assay (SPA). NTS, which is a 13 amino acid neuropeptide, is a sortilin ligand. The IC50 is a measure of the amount of the compound required to inhibit the binding of NTS to sortilin by 50%. The skilled person will recognise that the lower the IC50 value, the less of the compound needed to achieve the desired effect, and as a result, the chances of undesirable off-target effects are reduced.
Compound affinity was determined by measuring the displacement of [3H]-neurotensin binding to h-Sortilin in SPA format. Total volume of 40 µl in 50 mM HEPES pH 7.4 assay buffer containing 100 mM NaCl, 2.0 mM CaCl2, 0.1% BSA and 0.1% Tween-20. Compound pre-incubation for 30 minutes at room temperature with 150 nM of 6his-Sortilin before 5 nM [3H]-Neurotensin and Ni chelate imaging beads (Perkin Elmer) were added, after 6 hours the plate was read on a ViewLux with 360 s exposure time. Dose-response evaluation of compounds was performed with 8 concentrations of drugs (covering 3 decades). IC50 values were calculated by nonlinear regression using the sigmoid concentration-response (variable slope) using CDD Vault software. All values reported are average of at least 2 determinations.

The target in assay [2] is T3, Sortilin (Mus musculus, UniProt Q6PHU5).
T3 construct: purchased Bio-Techne Ltd 2934-ST-050
T3 sequence (Q6PHU5 76-753 limits assumed): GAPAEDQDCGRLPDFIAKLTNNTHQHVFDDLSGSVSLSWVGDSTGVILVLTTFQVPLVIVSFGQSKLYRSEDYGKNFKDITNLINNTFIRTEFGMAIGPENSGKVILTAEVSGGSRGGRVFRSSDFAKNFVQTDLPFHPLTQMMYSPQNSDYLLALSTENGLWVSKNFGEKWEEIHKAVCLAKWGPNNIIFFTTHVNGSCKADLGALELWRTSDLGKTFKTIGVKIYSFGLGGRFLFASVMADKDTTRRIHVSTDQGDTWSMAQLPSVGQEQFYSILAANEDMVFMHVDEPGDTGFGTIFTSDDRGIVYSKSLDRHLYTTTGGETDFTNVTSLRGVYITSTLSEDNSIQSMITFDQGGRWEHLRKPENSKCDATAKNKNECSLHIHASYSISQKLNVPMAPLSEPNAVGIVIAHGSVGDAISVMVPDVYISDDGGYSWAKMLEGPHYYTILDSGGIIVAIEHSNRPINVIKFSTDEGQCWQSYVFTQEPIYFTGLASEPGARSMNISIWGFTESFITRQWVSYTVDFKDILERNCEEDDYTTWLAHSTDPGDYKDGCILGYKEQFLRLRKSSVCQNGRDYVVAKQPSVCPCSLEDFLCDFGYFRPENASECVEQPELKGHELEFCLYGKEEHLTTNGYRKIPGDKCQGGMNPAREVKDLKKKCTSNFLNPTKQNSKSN
The assay can be described thus: Creoptix (GCI) binding kinetics, mouse Sortilin. The following applies: Species Mouse, screened at 1 µM, 25 degrees Celsius. As for the experimental part:
as §1, §2, §3, §4, §5, §6, §7, §8, §9, §10, §11, §12, §13, §14

For the molecule `CC(C)(C)CC[C@H](NCc1ccc2c(c1)CNCC2)C(=O)O` [Example 18, (2S)-5,5-dimethyl-2-{[(1,2,3,4-tetrahydroisoquinolin-7-yl)methyl]amino}hexanoic acid], the Kd on Sortilin [1] (Form of Compound Free acid) was determined as 1420 nM; at Sortilin [2] (Form of Compound Free acid), 2280 nM. For the same molecule, the IC50 at h-Sortilin came to 500 nM.

Consider `CN1CCOc2cc(CN[C@@H](CCC(C)(C)C)C(=O)O)ccc21` [Example 19, (S)-5,5-dimethyl-2-(((4-methyl-3,4-dihydro-2H-benzo[b][1,4]oxazin-7-yl)methyl)amino)hexanoic acid], for which the results for the Kd on Sortilin [1] (Form of Compound Free acid) and at Sortilin [2] (Form of Compound Free acid) were 3720 nM and 3180 nM, respectively. In addition, on h-Sortilin, the IC50 amounted to 660 nM.

With `CC(C)(C)CC[C@H](NCc1ccc2c(c1)CCCN2)C(=O)O` [Example 16, (2S)-5,5-dimethyl-2-{[(1,2,3,4-tetrahydroquinolin-6-yl)methyl]amino}hexanoic acid], the Kd on Sortilin [1] (Form of Compound Free acid) turned out to be 255 nM; on Sortilin [2] (Form of Compound Free acid), 299 nM. In addition, the IC50 on h-Sortilin was 570 nM.

As for `C[C@H](N[C@@H](CCC(C)(C)C)C(=O)O)c1ccc2c(c1)CCOC2` [Example 59], the Kd was 218 nM on Sortilin [1] (Form of Compound Mesylate salt) and 204 nM at Sortilin [2] (Form of Compound Mesylate salt). Further, the IC50 at h-Sortilin came to 320 nM.

`C[C@@H](N[C@@H](CCC(C)(C)C)C(=O)O)c1ccc2c(c1)NCCC2` [Example 58]: the Kd is 67 nM on Sortilin [1] (Form of Compound Free acid) and 70.3 nM at Sortilin [2] (Form of Compound Free acid). Moreover, the IC50 on h-Sortilin turned out to be 310 nM.

For the molecule `C[C@H](N[C@@H](CCC(C)(C)C)C(=O)O)c1ccc2c(c1)OCO2` [Example 70], the Kd on Sortilin [1] (Form of Compound Free acid) is 133 nM; on Sortilin [2] (Form of Compound Free acid), 116 nM. Further, the IC50 at h-Sortilin turned out to be 530 nM.

In turn, `CC(C)(C)CC[C@H](NCc1cccc2c1CCCO2)C(=O)O` [Example 72] yielded a Kd on Sortilin [1] (Form of Compound Free acid) of 613 nM. Moreover, the IC50 on h-Sortilin was found to be 1080 nM.

Consider `CC(C)(C)CC[C@H](NCc1ccc2c(c1)NCCC2)C(=O)O` [Example 17, (2S)-5,5-dimethyl-2-{[(1,2,3,4-tetrahydroquinolin-7-yl)methyl]amino}hexanoic acid], for which binding on Sortilin [1] (Form of Compound Free acid) was characterised by a dissociation constant (Kd) of 97.3 nM. On h-Sortilin, the IC50 is 190 nM.

The molecule `CC(C)(C)CC[C@H](N[C@@H](c1ccc2c(c1)OCCC2)C(F)F)C(=O)O` [Example 46] returned a Kd on Sortilin [1] (Form of Compound Free acid) of 43.4 nM. For the same molecule, on h-Sortilin, the IC50 is 130 nM.

In turn, `Cn1c(=O)oc2cc(CN[C@@H](CCC(C)(C)C)C(=O)O)ccc21` [Example 22, (2S)-5,5-dimethyl-2-{[(3-methyl-2-oxo-2,3-dihydro-1,3-benzoxazol-6-yl)methyl]amino}hexanoic acid] registered a Kd on Sortilin [1] (Form of Compound Free acid) of 350 nM. Besides, the concentration for half-maximal inhibition (IC50) at h-Sortilin stood at 470 nM.

The molecule `CN1C(=O)COc2ccc(CN[C@@H](CCC(C)(C)C)C(=O)O)cc21` [Example 21, (2S)-5,5-dimethyl-2-{[(4-methyl-3-oxo-3,4-dihydro-2H-1,4-benzoxazin-6-yl)methyl]amino}hexanoic acid] returned a dissociation constant (Kd) on Sortilin [1] (Form of Compound Free acid) of 164 nM. The 50% inhibitory concentration (IC50) on h-Sortilin was determined as 260 nM.

Molecule `CC(C)(C)CC[C@H](N[C@@H](c1ccc2c(c1)CCC2)C(F)(F)F)C(=O)O` [Example 49] came in with an equilibrium dissociation constant (Kd) on Sortilin [1] (Form of Compound Free acid) of 504 nM. Further, the IC50 at h-Sortilin worked out at 220 nM.

Consider `CC(C)(C)CC[C@H](NCc1ccc2c(c1)OCO2)C(=O)O` [Example 68], for which the affinity at Sortilin [1] (Form of Compound Free acid), expressed as Kd, was 163 nM. Moreover, the IC50 at h-Sortilin was found to be 860 nM.

Consider `C[C@@H](N[C@@H](CCC(C)(C)C)C(=O)O)c1ccc(Oc2ccccc2)nc1` [Example 43], for which binding on Sortilin [1] (Form of Compound Free acid) was put at a Kd of 68.3 nM. In addition, at h-Sortilin, the IC50 came out at 410 nM.

In turn, `CC(C)(C)CC[C@H](NCc1cnc2c(c1)COCC2)C(=O)O` [Example 2, (2S)-5,5-dimethyl-2-[({5H,7H,8H-pyrano[4,3-b]pyridin-3-yl}methyl)amino]hexanoic acid] came in with a Kd on Sortilin [1] (Form of Compound Free acid) of 172 nM. At h-Sortilin, the IC50 was determined as 350 nM.

On Sortilin [1] (Form of Compound Free acid), `CC(C)(C)CC[C@H](N[C@H](c1ccc2c(c1)OCCC2)C(F)F)C(=O)O` [Example 56] gave a Kd of 696 nM. For the same molecule, the IC50 on h-Sortilin was 310 nM.
